# Target: T1, short form of the GPR120 receptor (Homo sapiens, UniProt Q5NUL3)
# T1 construct: host or cells: PathHunter CHO-K1 GPR120S β-Arrestin Cell Line
# Assay: Human GPR120 DiscoveRx PathHunter Beta-Arrestin assay, Procedure β-arrestin B
# Type: cell-based
# Excerpt: Human GPR120 DiscoveRx PathHunter® Beta-Arrestin Assay Assay Principle:
# The binding of an agonist (medium/long chain fatty acids or small molecule agonists) to the G-protein-coupled receptor GPR120 activates phospholipase C, leading to release of intracellular Ca^+2 through the generation of inositol 1,4,5-trisphosphate (InsP3 or IP3). GPR120 activation can also trigger intracellular signaling via recruitment of Beta-Arrestin. In the present method, agonist-induced activation of the human GPR120 receptor is monitored through the use of PathHunter® CHO-K1 GPR120 Beta-Arrestin Cell Line engineered by DiscoveRx, as detailed below. The cell lines are designed to co-express both the ProLink/Enzyme Donor (PK)-tagged GPCR and the Enzyme […] (EA)-tagged Beta-Arrestin fusion proteins. Upon GPR120 receptor stimulation/activation, the EA-tagged Beta-Arrestin portion is translocated to the tagged receptor, where the two enzyme fragments are brought within close proximity. Under these conditions, these fragments can interact and form an active Beta-gal enzyme complex through Enzyme Fragment Complementation (EFC). This active Beta-gal complex can enzymatically hydrolyse the substrate to produce a detectable light signal; therefore, activation as a function of agonist concentration can be expressed as an EC50 value to determine relative compound activities. This in vitro assay therefore serves to assess compound agonist activity of the GPR120.
# In Procedure β-arrestin B the cells used were PathHunter® CHO-K1 GPR120S β-Arrestin Cell Line, expressing the short form of the GPR120 receptor (Accession #[…]), with 5000 cells/well.
# The selected CHO-K1 GPR120 β-Arrestin cells were cultured in Ham's F12 media supplemented with 10% fetal bovine serum (FBS), 1% Glutamine, 1×p/s, 800 μg/mL G418 and 300 μg/mL Hygromycin B (for selection). Cell stocks were maintained and grown in a sub-confluent state using standard cell culture procedures. The day before the experiment, the cells were harvested with non-enzymatic cell dissociation buffer and re-suspended in complete growth media at the desired concentration. A Corning 384-plate was then seeded with the proper number of cells in a volume of 25 μL, per well. The seeded plates were incubated overnight at 37° C.
# On the day of the experiment, the Assay Buffer containing (a) HBSS with Ca^++ and Mg^++, (b) 20 mM HEPES, and (c) 0.1% BSA stabilizer (pH 7.4) was prepared. The growth medium was gently removed from the cell plates and 20 μL of Assay Buffer added to each well. The plate was then incubated at 37° C. for 60 min. Test compounds were serially diluted in Assay Buffer to desired concentrations (more particularly to one or more of the following μM concentrations: 25, 12.5, 6.25, 3.12, 1.56, 0.78, 0.39, 0.19, 0.10, 0.05, 0.02, 0.01). Five μL of compound dilution was then added to each well and the plate incubated at 37° C. for 90 min. The detection reagents were prepared according to the manufacture's instruction. Twelve μL of the detection reagents were added to each well and the plate incubated at room temperature for 60 min.
# The plates were read on an EnVision instrument, using Protocol name: Luminescence, Plate type: 384 Costar, Measurement height: 3 mm, Measurement time: 1 s, Aperture: 384 Plate aperture. The % Activity relative to the positive control was calculated using the following equation:
# The % Activity values were plotted versus the concentration of test compound and fitted to a sigmoidal dose-response curve with a Hill slope=1 (fixed value) using nonlinear regression with GraphPad Prism 5.0 to calculate the EC50 values. The Fitting Equation was: Y=Bottom+(Top-Bottom)/(1+10^((Log EC50−X)*HillSlope)), where X is the log of the concentration and Y is the response.
# T1 sequence (Q5NUL3 whole entry): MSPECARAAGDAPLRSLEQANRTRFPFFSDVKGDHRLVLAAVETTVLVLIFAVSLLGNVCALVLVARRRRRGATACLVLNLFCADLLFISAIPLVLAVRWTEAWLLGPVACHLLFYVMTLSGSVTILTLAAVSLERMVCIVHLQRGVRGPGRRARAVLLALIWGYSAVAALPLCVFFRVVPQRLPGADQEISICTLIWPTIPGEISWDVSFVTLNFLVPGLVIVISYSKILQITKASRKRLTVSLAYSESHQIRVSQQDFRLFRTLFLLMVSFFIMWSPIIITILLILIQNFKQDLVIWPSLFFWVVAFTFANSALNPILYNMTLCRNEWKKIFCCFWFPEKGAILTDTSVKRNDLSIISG
# T1 sequence (P32121 whole entry partner): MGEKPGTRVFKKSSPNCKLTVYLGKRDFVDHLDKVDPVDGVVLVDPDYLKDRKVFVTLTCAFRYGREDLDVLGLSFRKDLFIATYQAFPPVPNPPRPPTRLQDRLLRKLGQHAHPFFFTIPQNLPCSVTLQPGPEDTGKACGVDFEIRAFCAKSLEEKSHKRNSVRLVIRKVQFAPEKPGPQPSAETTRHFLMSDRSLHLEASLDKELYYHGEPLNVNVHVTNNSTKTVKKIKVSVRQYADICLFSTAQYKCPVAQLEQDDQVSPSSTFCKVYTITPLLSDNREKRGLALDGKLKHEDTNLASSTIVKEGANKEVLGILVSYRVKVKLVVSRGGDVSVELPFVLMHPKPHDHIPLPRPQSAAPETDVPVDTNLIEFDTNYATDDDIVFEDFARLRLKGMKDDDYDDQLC
row,SMILES,EC50 [nM]
1,"Cc1ccc(C2=C(COc3ccc(CCC(=O)O)c(F)c3F)CCC2)cc1F [Compound 78, 3-(2,3-difluoro-4-((2-(3-fluoro-4-methylphenyl)cyclopent-1-en-1-yl)methoxy)phenyl)Propanoic Acid]",75
2,"Cc1cc(CCC(=O)O)ccc1OCC1=C(c2ccc(Cl)cc2)CCC1 [Compound 62, 3-[4-[[2-(4-chlorophenyl)cyclopenten-1-yl]methoxy]-3-methyl-phenyl]Propanoic Acid]",75
3,"Cc1ccc(C2=C(COc3ccc(CCC(=O)O)c(C)c3C)CCC2)cc1C [Compound 106, 3-(4-((2-(3,4-dimethylphenyl)cyclopent-1-en-1-yl)methoxy)-2,3-dimethylphenyl)Propanoic Acid]",853
4,"Cc1c(CCC(=O)O)ccc(OCC2=C(c3cncs3)CCC2)c1C [Compound 88, 3-[2,3-dimethyl-4-[(2-thiazol-5-ylcyclopenten-1-yl)methoxy]phenyl]Propanoic Acid]",588
5,"Cc1ccc(C2=C(COc3ccc(CCC(=O)O)c(F)c3F)CCC2)cc1C [Compound 83, 3-(4-((2-(3,4-dimethylphenyl)cyclopent-1-en-1-yl)methoxy)-2,3-difluorophenyl)Propanoic Acid]",630
6,"O=C(O)CCc1ccc(OCC2=C(c3ccc(Cl)cc3)CCC2)cc1F [Compound 47, 3-[4-[[2-(4-chlorophenyl)cyclopenten-1-yl]methoxy]-2-fluoro-phenyl]Propanoic Acid]",273
7,"Cc1cc(CCC(=O)O)ccc1OCC1=C(c2ccc(Cl)cc2)CCC(F)(F)C1 [Compound 467, 3-(4-((4′-chloro-4,4-difluoro-3,4,5,6-tetrahydro-[1,1′-biphenyl]-2-yl)methoxy)-3-methylphenyl)Propanoic Acid]",104
8,"Cc1cc(CCC(=O)O)ccc1OCC1=C(c2ccc(Cl)c(F)c2)CCC1 [Compound 159, 3-(4-((2-(4-chloro-3-fluorophenyl)cyclopent-1-en-1-yl)methoxy)-3-methylphenyl)Propanoic Acid]",56
9,"Cc1ccc(C2=C(COc3ccc(CCC(=O)O)cc3C)CCC2)cn1 [Compound 102, 3-(3-methyl-4-((2-(6-methylpyridin-3-yl)cyclopent-1-en-1-yl)methoxy)phenyl)Propanoic Acid]",365
10,"Cc1c(CCC(=O)O)ccc(OCC2=C(c3cccnc3)CCC2)c1C [Compound 108, 3-[2,3-dimethyl-4-[[2-(3-pyridyl)cyclopenten-1-yl]methoxy]phenyl]Propanoic Acid]",807
11,"Cc1ccc(C2=C(COc3c(F)cc(CCC(=O)O)cc3F)CCCC2)cc1F [Compound 493, 3-[3,5-difluoro-4-[[2-(3-fluoro-4-methyl-phenyl)cyclohexen-1-yl]methoxy]phenyl]Propanoic Acid]",356
12,"CCc1ccc(C2=C(COc3ccc(CCC(=O)O)c(F)c3F)CCC2)cc1 [Compound 25, 3-(4-((2-(4-ethylphenyl)cyclopent-1-en-1-yl)methoxy)-2,3-difluorophenyl)Propanoic Acid]",89
13,"Cc1ccc(C2=C(COc3ccc(CCC(=O)O)c(F)c3F)CCC2)cc1N [Compound 93, 3-(4-((2-(3-amino-4-methylphenyl)cyclopent-1-en-1-yl)methoxy)-2,3-difluorophenyl)Propanoic Acid]",587
14,"O=C(O)CCc1c(F)c(F)c(OCC2=C(c3ccc(Cl)cc3)CCCC2)c(F)c1F [Compound 479, 3-[4-[[2-(4-chlorophenyl)cyclohexen-1-yl]methoxy]-2,3,5,6-tetrafluoro-phenyl]Propanoic Acid]",682
15,"Cc1ccccc1C1=C(COc2ccc(CCC(=O)O)c(C)c2C)CCC1 [Compound 132, 3-[2,3-dimethyl-4-[[2-(o-tolyl)cyclopenten-1-yl]methoxy]phenyl]Propanoic Acid]",1800
16,Cc1ccc(C2=C(COc3ccc(CCC(=O)O)c(C)c3C)CCC2)c(C)c1 [Compound 82],1090

# From patent US11230526B1, “Cylcoalkenyl derivatives useful as agonists of the GPR120 and/or GPR40 receptors” (Janssen Pharmaceutica NV, priority 2018, dated 2022)
